These results are taken from PMC6934184, “Selective DNA-PKcs inhibition extends the therapeutic index of localized radiotherapy and chemotherapy” (The Journal of Clinical Investigation, 2019).

The test has as its target T1, CDK16 (PCTK1)/cyclin Y (Homo sapiens, UniProt Q00536).
T1 construct: purchased Thermo Fisher Scientific (Life Technologies) SelectScreen
Description: SelectScreen LanthaScreen. In kind it is binding. Conditions: read-out: % displacement. The procedure, abridged: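 NU5455 was profiled across the SelectScreen Broad panel of kinase activity and binding assays. Z'LYTE reactions such as CSF1R ran at apparent Km ATP, while the Adapta CAMK1 assay used ATP listed as 10. Values are given as percent.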
A general note: In TR-FRET formats the signal depends on donor and acceptor labels being close together.

T1 sequence (Q00536 whole entry): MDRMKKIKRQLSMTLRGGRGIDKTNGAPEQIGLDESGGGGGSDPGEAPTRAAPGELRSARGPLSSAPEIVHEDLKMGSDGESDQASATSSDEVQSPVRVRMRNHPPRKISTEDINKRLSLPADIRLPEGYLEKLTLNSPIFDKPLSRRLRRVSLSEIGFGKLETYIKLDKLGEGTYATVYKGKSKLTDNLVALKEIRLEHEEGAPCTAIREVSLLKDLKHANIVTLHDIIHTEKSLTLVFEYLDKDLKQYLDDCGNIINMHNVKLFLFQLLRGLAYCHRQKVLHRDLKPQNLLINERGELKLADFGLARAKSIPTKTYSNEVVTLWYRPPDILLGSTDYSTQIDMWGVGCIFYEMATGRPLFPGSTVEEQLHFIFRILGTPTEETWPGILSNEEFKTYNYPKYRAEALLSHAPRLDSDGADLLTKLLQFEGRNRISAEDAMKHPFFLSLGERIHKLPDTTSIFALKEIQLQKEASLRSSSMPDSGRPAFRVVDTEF
T1 sequence (Q8ND76 whole entry partner): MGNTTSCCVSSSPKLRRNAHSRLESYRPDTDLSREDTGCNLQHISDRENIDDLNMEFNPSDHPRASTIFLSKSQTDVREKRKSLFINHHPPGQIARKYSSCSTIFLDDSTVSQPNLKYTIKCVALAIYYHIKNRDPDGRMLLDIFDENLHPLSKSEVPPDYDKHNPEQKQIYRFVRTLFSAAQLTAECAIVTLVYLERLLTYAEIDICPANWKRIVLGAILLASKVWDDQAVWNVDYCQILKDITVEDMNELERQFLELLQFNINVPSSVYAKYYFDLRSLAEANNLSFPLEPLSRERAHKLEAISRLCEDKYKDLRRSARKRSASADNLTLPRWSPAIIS

For `CN(C(=O)CN1CCOCC1)c1ccc2sc3c(-c4cccc5c(=O)cc(N6CC7CCC(C6)O7)oc45)cccc3c2c1` [NU5455], the inhibition at 1 µM stood at 7%.
